Patent US20240317723A1, “SUBSTITUTED AMINO AZA-HETEROARYL COMPOUNDS AS INHIBITORS OF THE HAEMATOPOIETIC PROGENITOR KINASE 1 (HPK1)” (priority 2021, published 2024)

Columns and labels:
[1] = molecular target: T1, Recombinant (1-346) HPK1 (h) (Homo sapiens, UniProt Q92918); test: HPK1 Human STE Kinase Enzymatic Radiometric Assay; assay type: biochemical; settings: [gamma-33P]-ATP, myelin basic protein substrate, read-out: HPK1 IC50 nM Range*
T1 construct: Recombinant (1-346) HPK1 (h) is incubated with 8 mM MOPS pH 7.0
T1 sequence (Q92918 1-346): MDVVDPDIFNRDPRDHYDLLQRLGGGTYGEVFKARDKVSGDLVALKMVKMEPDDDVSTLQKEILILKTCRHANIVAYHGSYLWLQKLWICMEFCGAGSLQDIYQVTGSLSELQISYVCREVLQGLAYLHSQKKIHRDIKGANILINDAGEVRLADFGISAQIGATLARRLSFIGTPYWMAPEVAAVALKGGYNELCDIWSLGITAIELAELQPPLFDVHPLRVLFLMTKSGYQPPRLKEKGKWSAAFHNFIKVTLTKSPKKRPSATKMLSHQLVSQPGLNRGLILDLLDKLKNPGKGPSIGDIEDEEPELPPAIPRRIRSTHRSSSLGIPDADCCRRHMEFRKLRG
Experimental: (a) HPK1 Human STE Kinase Enzymatic Radiometric Assay
A stock solution of 10 mM of test compound is prepared in DMSO. The compound plate was prepared by 3-fold and 9-point serial dilutions. Recombinant (1-346) HPK1 (h) is incubated with 8 mM MOPS pH 7.0, 0.2 mM EDTA, 0.33 mg/mL myelin basic protein, 10 mM MgAcetate and [gamma-33P]-ATP (specific activity and concentration as required). The reaction is initiated by the addition of the Mg/ATP mix. After incubation for 40 minutes at RT, the reaction is stopped by the addition of phosphoric acid to a concentration of 0.5%. 10 uL of the reaction is then spotted onto a P30 filtermat and washed four times for 4 minutes in 0.425% phosphoric acid and once in methanol prior to drying and scintillation counting. For more details of kinase assay protocols, see: Gao, Y. et. al.; Biochem J. 451 (2): 313-328, 2013.

Lck (h) = Lck (h) (Homo sapiens, UniProt P06239); test: Lck Human STE Kinase Enzymatic Radiometric Assay; assay type: biochemical; settings: for IC50: radiometric, [gamma-33P]-ATP, Cdc2 peptide substrate, read-out: Lck IC50, nM Range*
Chain of Lck (h) (P06239 whole entry): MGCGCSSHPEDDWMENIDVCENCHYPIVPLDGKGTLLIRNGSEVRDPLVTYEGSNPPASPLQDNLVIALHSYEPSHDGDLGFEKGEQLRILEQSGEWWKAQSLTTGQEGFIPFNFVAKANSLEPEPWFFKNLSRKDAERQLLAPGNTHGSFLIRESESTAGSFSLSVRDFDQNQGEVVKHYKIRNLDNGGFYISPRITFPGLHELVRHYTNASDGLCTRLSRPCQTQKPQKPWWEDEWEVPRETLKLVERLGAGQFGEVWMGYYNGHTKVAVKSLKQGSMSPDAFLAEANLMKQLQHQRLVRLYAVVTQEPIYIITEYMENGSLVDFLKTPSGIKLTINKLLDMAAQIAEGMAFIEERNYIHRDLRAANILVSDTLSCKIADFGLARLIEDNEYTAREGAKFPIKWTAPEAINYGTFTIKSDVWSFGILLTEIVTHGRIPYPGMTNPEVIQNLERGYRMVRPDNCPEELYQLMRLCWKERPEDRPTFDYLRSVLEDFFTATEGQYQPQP
Experimental: (b) Lck Human STE Kinase Enzymatic Radiometric Assay
Lck (h) is incubated with 50 mM Tris pH 7.5, 0.1 mM EGTA, 0.1 mM Na3VO4, 250 uM KVEKIGEGTYGVVYK (Cdc2 peptide), 10 mM MgAcetate and [gamma-33P]-ATP (specific activity and concentration as required). The reaction is initiated by the addition of the Mg/ATP mix. After incubation for 40 minutes at room temperature, the reaction is stopped by the addition of phosphoric acid to a concentration of 0.5%. 10 uL of the reaction is then spotted onto a P30 filtermat and washed four times for 4 minutes in 0.425% phosphoric acid and once in methanol prior to drying and scintillation counting. For more details on the kinase assay procedures see: Gao, Y. et. al.; Biochem J., 451 (2): 313-328, 2013.
In some embodiments the presence of substituents on monocyclic Cy^2 rings or when Cy^2 is a bicyclic ring (unsubstituted or substituted) provides compounds with improved selectivity for inhibition of HPK1 vs Lck (see, for example, Table 3 and Table 4).

| IC50 [1] | IC50 (Lck (h)) | Selectivity (Lck (h); selectivity for inhibition of HPK1 vs Lck) | Structure (SMILES) |
| --- | --- | --- | --- |
| 0.1 to 5 nM | 21 to 200 nM | 1066 | CC(C)[C@H]1CN(c2ccc(-c3cnc(N)c(-c4ccc5c(c4)CCNC5=O)n3)c(F)c2)CCO1 [Example I-14, (S)-6-(3-amino-6-(2-fluoro-4-(2-isopropylmorpholino)phenyl)pyrazin-2-yl)-3,4-dihydroisoquinolin-1(2H)-one] |
| 0.1 to 5 nM | 21 to 200 nM | – | CC(C)[C@@H]1CN(c2ccc(-c3cnc(N)c(-c4ccc5c(c4)CCNC5=O)n3)c(F)c2F)CCO1 [Example I-15, (R)-6-(3-amino-6-(2,3-difluoro-4-(2-isopropylmorpholino)phenyl)pyrazin-2-yl)-3,4-dihydroisoquinolin-1(2H)-one] |
| 0.1 to 5 nM | 21 to 200 nM | – | CC(C)[C@H]1CN(c2ccc(-c3cnc(N)c(-c4ccc5c(c4)CCNC5=O)n3)c(F)c2F)CCO1 [Example I-16, (S)-6-(3-amino-6-(2,3-difluoro-4-(2-isopropylmorpholino)phenyl)pyrazin-2-yl)-3,4-dihydroisoquinolin-1(2H)-one] |
| 0.1 to 5 nM | 21 to 200 nM | – | C[C@@H]1CCCCN1c1ccc(-c2cnc(N)c(-c3ccc4c(c3)CCNC4=O)n2)c(F)c1 [Example I-17, (R)-6-(3-amino-6-(2-fluoro-4-(2-methylpiperidin-1-yl)phenyl)pyrazin-2-yl)-3,4-dihydroisoquinolin-1(2H)-one] |
| 6 to 10 nM | 21 to 200 nM | – | C[C@H]1CCCCN1c1ccc(-c2cnc(N)c(-c3ccc4c(c3)CCNC4=O)n2)c(F)c1 [Example I-18, (S)-6-(3-amino-6-(2-fluoro-4-(2-methylpiperidin-1-yl)phenyl)pyrazin-2-yl)-3,4-dihydroisoquinolin-1(2H)-one] |
| 0.1 to 5 nM | 11 to 20 nM | – | CC(=O)N1CCN(c2ccc(-c3cnc(N)c(-c4ccc5c(c4)CCNC5=O)n3)cc2)CC1 [Example I-19, 6-(6-(4-(4-acetylpiperazin-1-yl)phenyl)-3-aminopyrazin-2-yl)-3,4-dihydroisoquinolin-1(2H)-one] |
| 0.1 to 5 nM | 11 to 20 nM | – | CN(C)C1CCN(c2ccc(-c3cnc(N)c(-c4ccc5c(c4)CCNC5=O)n3)c(F)c2)C1 (stereo not drawn) [Example I-20, 6-(3-amino-6-(4-(3-(dimethylamino)pyrrolidin-1-yl)-2-fluorophenyl)pyrazin-2-yl)-3,4-dihydroisoquinolin-1(2H)-one] |
| 0.1 to 5 nM | 11 to 20 nM | – | CN(C)C1CCN(c2ccc(-c3cnc(N)c(-c4ccc5c(c4)CCNC5=O)n3)c(F)c2F)C1 (stereo not drawn) [Example I-21, 6-(3-amino-6-(4-(3-(dimethylamino)pyrrolidin-1-yl)-2,3-difluorophenyl)pyrazin-2-yl)-3,4-dihydroisoquinolin-1(2H)-one] |
| 6 to 10 nM | 21 to 200 nM | – | C[C@@H]1COCCN1c1ccc(-c2cnc(N)c(-c3ccc4c(c3)CCNC4=O)n2)c(F)c1 [Example I-22, (R)-6-(3-amino-6-(2-fluoro-4-(3-methylmorpholino)phenyl)pyrazin-2-yl)-3,4-dihydroisoquinolin-1(2H)-one] |
| 0.1 to 5 nM | 11 to 20 nM | – | C[C@H]1COCCN1c1ccc(-c2cnc(N)c(-c3ccc4c(c3)CCNC4=O)n2)c(F)c1 [Example I-23, (S)-6-(3-amino-6-(2-fluoro-4-(3-methylmorpholino)phenyl)pyrazin-2-yl)-3,4-dihydroisoquinolin-1(2H)-one] |
| 0.1 to 5 nM | 21 to 200 nM | – | CC(C)C1CCCN(c2ccc(-c3cnc(N)c(-c4ccc5c(c4)CCNC5=O)n3)cc2)C1 (stereo not drawn) [Example I-24, 6-(3-amino-6-(4-(3-isopropylpiperidin-1-yl)phenyl)pyrazin-2-yl)-3,4-dihydroisoquinolin-1(2H)-one] |
| 6 to 10 nM | 21 to 200 nM | – | CC(C)C1CCCN(c2ccc(-c3cnc(N)c(-c4ccc5c(c4)CCNC5=O)n3)c(F)c2)C1 (stereo not drawn) [Example I-25, 6-(3-amino-6-(2-fluoro-4-(3-isopropylpiperidin-1-yl)phenyl)pyrazin-2-yl)-3,4-dihydroisoquinolin-1(2H)-one] |
| 0.1 to 5 nM | 11 to 20 nM | – | CN1C[C@@H]2C[C@H]1CN2c1ccc(-c2cnc(N)c(-c3ccc4c(c3)CCNC4=O)n2)cc1 [Example I-26, 6-(3-amino-6-(4-((1S,4S)-5-methyl-2,5-diazabicyclo[2.2.1]heptan-2-yl)phenyl)pyrazin-2-yl)-3,4-dihydroisoquinolin-1(2H)-one] |
| 0.1 to 5 nM | 6 to 10 nM | – | CC(C)[C@@H]1CN(c2ccc(-c3cnc(N)c(-c4cc5c(cc4F)C(=O)NCC5)n3)cc2)CCO1 [Example I-27, (R)-6-(3-amino-6-(4-(2-isopropylmorpholino)phenyl)pyrazin-2-yl)-7-fluoro-3,4-dihydroisoquinolin-1(2H)-one] |
| 0.1 to 5 nM | 11 to 20 nM | – | CC(C)[C@H]1CN(c2ccc(-c3cnc(N)c(-c4cc5c(cc4F)C(=O)NCC5)n3)cc2)CCO1 [Example I-28, (S)-6-(3-amino-6-(4-(2-isopropylmorpholino)phenyl)pyrazin-2-yl)-7-fluoro-3,4-dihydroisoquinolin-1(2H)-one] |
| 0.1 to 5 nM | 21 to 200 nM | – | CC(C)[C@@H]1CN(c2ccc(-c3cnc(N)c(-c4cc5c(cc4F)C(=O)NCC5)n3)c(F)c2)CCO1 [Example I-29, (R)-6-(3-amino-6-(2-fluoro-4-(2-isopropylmorpholino)phenyl)pyrazin-2-yl)-7-fluoro-3,4-dihydroisoquinolin-1(2H)-one] |
| 0.1 to 5 nM | 21 to 200 nM | – | CC(C)[C@H]1CN(c2ccc(-c3cnc(N)c(-c4cc5c(cc4F)C(=O)NCC5)n3)c(F)c2)CCO1 [Example I-30, (S)-6-(3-amino-6-(2-fluoro-4-(2-isopropylmorpholino)phenyl)pyrazin-2-yl)-7-fluoro-3,4-dihydroisoquinolin-1(2H)-one] |
| 0.1 to 5 nM | 21 to 200 nM | – | CC(C)[C@@H]1CN(c2ccc(-c3cnc(N)c(-c4cc5c(cc4F)C(=O)NCC5)n3)c(F)c2F)CCO1 [Example I-31, (R)-6-(3-amino-6-(2,3-difluoro-4-(2-isopropylmorpholino)phenyl)pyrazin-2-yl)-7-fluoro-3,4-dihydroisoquinolin-1(2H)-one] |
| 0.1 to 5 nM | 21 to 200 nM | – | CC(C)[C@H]1CN(c2ccc(-c3cnc(N)c(-c4cc5c(cc4F)C(=O)NCC5)n3)c(F)c2F)CCO1 [Example I-32, (S)-6-(3-amino-6-(2,3-difluoro-4-(2-isopropylmorpholino)phenyl)pyrazin-2-yl)-7-fluoro-3,4-dihydroisoquinolin-1(2H)-one] |
| 0.1 to 5 nM | 11 to 20 nM | – | CN1CCN(c2ccc(-c3cnc(N)c(-c4ccc5c(c4)CCNC5=O)n3)cc2)C=N1 [Example I-33, 6-(3-amino-6-(4-(1-methyl-5,6-dihydro-1,2,4-triazin-4(1H)-yl)phenyl)pyrazin-2-yl)-3,4-dihydroisoquinolin-1(2H)-one] |
| 0.1 to 5 nM | 11 to 20 nM | – | Nc1ncc(-c2ccc(N3C[C@@H]4C[C@H]3CN4CC(F)(F)F)cc2)nc1-c1ccc2c(c1)CCNC2=O [Example I-34, 6-(3-amino-6-(4-((1S,4S)-5-(2,2,2-trifluoroethyl)-2,5-diazabicyclo[2.2.1]heptan-2-yl)phenyl)pyrazin-2-yl)-3,4-dihydroisoquinolin-1(2H)-1-one] |
| 0.1 to 5 nM | 11 to 20 nM | – | Nc1ncc(-c2ccc(N3CCN(CC(F)(F)F)CC3)cc2)nc1-c1ccc2c(c1)CCNC2=O [Example I-35, 6-(3-amino-6-(4-(4-(2,2,2-trifluoroethyl)piperazin-1-yl)phenyl)pyrazin-2-yl)-3,4-dihydroisoquinolin-1(2H)-one] |
